Experimental data taken from PubChem BioAssay AID248 (DTP/NCI, 2004).
Several values for one entry are separate records, joined by “and”; a condition that tells them apart may be missing. Identical values can stand only once. Toxic doses and inconclusive results are not listed. Rule as the data show it: active = T/C of 150% or more; inactive = T/C below 125%.

Test system: L1210 leukemia ip in BDF1 mice, survival T/C
Test: NCI In Vivo Anticancer Drug Screen. Data for tumor model L1210 Leukemia (intraperitoneal) in B6D2F1 (BDF1) mice
Settings: higher = longer survival
Procedure, shortened: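 Tumor was transplanted into mice, which were then dosed with test compound or vehicle alone. Survival was recorded for each group, and the treated figure was expressed relative to the control figure.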

Measured: T/C

N=C(N)SCc1c2ccccc2c(CSC(=N)N)c2ccccc12
inactive: endpoint: mean survival time, dose: 0.1 mg/kg/injection, schedule: Q07DX002 (ip), vehicle: saline 97 % of control | endpoint: mean survival time, dose: 0.11 mg/kg/injection, schedule: Q01DX Z (ip), vehicle: saline 110 % of control | endpoint: mean survival time, dose: 0.2 mg/kg/injection, schedule: Q01DX Z (ip), vehicle: carboxymethylcellulose (CMC) 113 % of control | endpoint: mean survival time, dose: 0.2 mg/kg/injection, schedule: Q07DX002 (ip), vehicle: saline 103 % of control | endpoint: mean survival time, dose: 0.3 mg/kg/injection, schedule: Q01DX Z (ip), vehicle: carboxymethylcellulose (CMC) 110 % of control | endpoint: mean survival time, dose: 0.3 mg/kg/injection, schedule: Q03HX008 (ip), vehicle: other 113 % of control | endpoint: mean survival time, dose: 0.37 mg/kg/injection, schedule: Q01DX Z (ip), vehicle: carboxymethylcellulose (CMC) 103 % of control | endpoint: mean survival time, dose: 0.39 mg/kg/injection, schedule: Q07DX002 (ip), vehicle: saline 92 % of control | endpoint: mean survival time, dose: 0.62 mg/kg/injection, schedule: Q#A X Z (ip), vehicle: carboxymethylcellulose (CMC) 111 % of control | endpoint: mean survival time, dose: 0.63 mg/kg/injection, schedule: Q01DX Z (im), vehicle: carboxymethylcellulose (CMC) 112 % of control | endpoint: mean survival time, dose: 0.63 mg/kg/injection, schedule: Q01DX Z (sc), vehicle: carboxymethylcellulose (CMC) 106 % of control | endpoint: mean survival time, dose: 0.75 mg/kg/injection, schedule: Q01DX Z (im), vehicle: carboxymethylcellulose (CMC) 106 % of control | endpoint: mean survival time, dose: 0.78 mg/kg/injection, schedule: Q07DX002 (ip), vehicle: saline 110 % of control | endpoint: mean survival time, dose: 1.25 mg/kg/injection, schedule: Q01DX009 (sc), vehicle: carboxymethylcellulose (CMC) 92 % of control | endpoint: mean survival time, dose: 1.25 mg/kg/injection, schedule: Q01DX Z (sc), vehicle: carboxymethylcellulose (CMC) 103 % of control and 112 % of control | endpoint: mean survival time, dose: 1.5 mg/kg/injection, schedule: Q01DX Z (ip), vehicle: saline 112 % of control | endpoint: mean survival time, dose: 2.5 mg/kg/injection, schedule: Q01DX009 (sc), vehicle: carboxymethylcellulose (CMC) 92 % of control | endpoint: mean survival time, dose: 2.5 mg/kg/injection, schedule: Q01DX Z (sc), vehicle: carboxymethylcellulose (CMC) 106 % of control and 113 % of control | endpoint: mean survival time, dose: 3.12 mg/kg/injection, schedule: Q01DX Z (im), vehicle: carboxymethylcellulose (CMC) 112 % of control | endpoint: mean survival time, dose: 3.12 mg/kg/injection, schedule: Q01DX Z (ip), vehicle: carboxymethylcellulose (CMC) 112 % of control | endpoint: mean survival time, dose: 5.0 mg/kg/injection, schedule: Q01DX006 (iv), vehicle: carboxymethylcellulose (CMC) 108 % of control | endpoint: mean survival time, dose: 5.0 mg/kg/injection, schedule: Q01DX009 (sc), vehicle: carboxymethylcellulose (CMC) 92 % of control | endpoint: mean survival time, dose: 5.0 mg/kg/injection, schedule: Q01DX Z (im), vehicle: carboxymethylcellulose (CMC) 113 % of control | endpoint: mean survival time, dose: 10.0 mg/kg/injection, schedule: Q01DX006 (iv), vehicle: carboxymethylcellulose (CMC) 96 % of control and 111 % of control | endpoint: mean survival time, dose: 10.0 mg/kg/injection, schedule: Q01DX009 (sc), vehicle: carboxymethylcellulose (CMC) 98 % of control | endpoint: mean survival time, dose: 10.0 mg/kg/injection, schedule: Q01DX Z (oral), vehicle: carboxymethylcellulose (CMC) 108 % of control | endpoint: mean survival time, dose: 10.0 mg/kg/injection, schedule: Q01DX Z (sc), vehicle: carboxymethylcellulose (CMC) 108 % of control | endpoint: mean survival time, dose: 12.5 mg/kg/injection, schedule: Q01DX Z (im), vehicle: carboxymethylcellulose (CMC) 110 % of control | endpoint: mean survival time, dose: 12.5 mg/kg/injection, schedule: Q03HX008 (ip), vehicle: carboxymethylcellulose (CMC) 107 % of control | endpoint: mean survival time, dose: 17.0 mg/kg/injection, schedule: Q01DX001 (ip), vehicle: carboxymethylcellulose (CMC) 111 % of control | endpoint: mean survival time, dose: 20.0 mg/kg/injection, schedule: Q01DX001 (sc), vehicle: carboxymethylcellulose (CMC) 98 % of control | endpoint: mean survival time, dose: 20.0 mg/kg/injection, schedule: Q01DX006 (iv), vehicle: carboxymethylcellulose (CMC) 112 % of control | endpoint: mean survival time, dose: 20.0 mg/kg/injection, schedule: Q01DX009 (sc), vehicle: carboxymethylcellulose (CMC) 95 % of control and 100 % of control | endpoint: mean survival time, dose: 20.0 mg/kg/injection, schedule: Q01DX Z (im), vehicle: carboxymethylcellulose (CMC) 106 % of control | endpoint: mean survival time, dose: 20.0 mg/kg/injection, schedule: Q01DX Z (oral), vehicle: carboxymethylcellulose (CMC) 111 % of control | endpoint: mean survival time, dose: 20.0 mg/kg/injection, schedule: Q01DX Z (sc), vehicle: carboxymethylcellulose (CMC) 106 % of control and 109 % of control | endpoint: mean survival time, dose: 25.0 mg/kg/injection, schedule: Q01DX017 (ip), vehicle: carboxymethylcellulose (CMC) 102 % of control | endpoint: mean survival time, dose: 25.0 mg/kg/injection, schedule: Q03HX040 (ip), vehicle: carboxymethylcellulose (CMC) 100 % of control | endpoint: mean survival time, dose: 30.0 mg/kg/injection, schedule: Q01DX009 (sc), vehicle: carboxymethylcellulose (CMC) 100 % of control | endpoint: mean survival time, dose: 32.0 mg/kg/injection, schedule: Q03HX024 (ip), vehicle: carboxymethylcellulose (CMC) 97 % of control | endpoint: mean survival time, dose: 32.0 mg/kg/injection, schedule: Q03HX024 (ip), vehicle: other 101 % of control | endpoint: mean survival time, dose: 40.0 mg/kg/injection, schedule: Q01DX001 (sc), vehicle: carboxymethylcellulose (CMC) 104 % of control | endpoint: mean survival time, dose: 41.0 mg/kg/injection, schedule: Q01DX Z (ip), vehicle: saline 105 % of control | endpoint: mean survival time, dose: 44.0 mg/kg/injection, schedule: Q01DX009 (sc), vehicle: carboxymethylcellulose (CMC) 101 % of control | endpoint: mean survival time, dose: 48.0 mg/kg/injection, schedule: Q01DX Z (ip), vehicle: carboxymethylcellulose (CMC) 101 % of control | endpoint: mean survival time, dose: 50.0 mg/kg/injection, schedule: Q03HX008 (ip), vehicle: carboxymethylcellulose (CMC) 113 % of control | endpoint: mean survival time, dose: 50.0 mg/kg/injection, schedule: Q03HX016 (ip), vehicle: carboxymethylcellulose (CMC) 94 % of control | endpoint: mean survival time, dose: 50.0 mg/kg/injection, schedule: Q03HX024 (ip), vehicle: carboxymethylcellulose (CMC) 102 % of control | endpoint: mean survival time, dose: 61.5 mg/kg/injection, schedule: Q01DX Z (ip), vehicle: saline 92 % of control | endpoint: mean survival time, dose: 66.0 mg/kg/injection, schedule: Q01DX009 (sc), vehicle: carboxymethylcellulose (CMC) 102 % of control | endpoint: mean survival time, dose: 80.0 mg/kg/injection, schedule: Q01DX001 (sc), vehicle: carboxymethylcellulose (CMC) 103 % of control | endpoint: mean survival time, dose: 80.0 mg/kg/injection, schedule: Q01DX Z (oral), vehicle: carboxymethylcellulose (CMC) 105 % of control and 106 % of control | endpoint: mean survival time, dose: 100.0 mg/kg/injection, schedule: Q01DX009 (ip), vehicle: saline 92 % of control | endpoint: mean survival time, dose: 100.0 mg/kg/injection, schedule: Q01DX009 (sc), vehicle: carboxymethylcellulose (CMC) 107 % of control | endpoint: mean survival time, dose: 100.0 mg/kg/injection, schedule: Q06HX004 (ip), vehicle: carboxymethylcellulose (CMC) 93 % of control | endpoint: mean survival time, dose: 100.0 mg/kg/injection, schedule: Q08DX003 (ip), vehicle: carboxymethylcellulose (CMC) 108 % of control | endpoint: mean survival time, dose: 160.0 mg/kg/injection, schedule: Q01DX001 (sc), vehicle: carboxymethylcellulose (CMC) 103 % of control | endpoint: mean survival time, dose: 200.0 mg/kg/injection, schedule: Q01DX009 (ip), vehicle: carboxymethylcellulose (CMC) 113 % of control | endpoint: mean survival time, dose: 200.0 mg/kg/injection, schedule: Q01DX017 (ip), vehicle: carboxymethylcellulose (CMC) 105 % of control | endpoint: mean survival time, dose: 200.0 mg/kg/injection, schedule: Q01DX Z (im), vehicle: carboxymethylcellulose (CMC) 112 % of control | endpoint: mean survival time, dose: 200.0 mg/kg/injection, schedule: Q08DX002 (ip), vehicle: carboxymethylcellulose (CMC) 113 % of control | endpoint: mean survival time, dose: 200.0 mg/kg/injection, schedule: Q08DX003 (ip), vehicle: carboxymethylcellulose (CMC) 104 % of control | endpoint: mean survival time, dose: 200.0 mg/kg/injection, schedule: Q#A X002 (ip), vehicle: saline 111 % of control | endpoint: mean survival time, dose: 266.0 mg/kg/injection, schedule: Q01DX001 (sc), vehicle: carboxymethylcellulose (CMC) 103 % of control | endpoint: mean survival time, dose: 300.0 mg/kg/injection, schedule: Q03DX Z (ip), vehicle: saline 113 % of control | endpoint: mean survival time, dose: 320.0 mg/kg/injection, schedule: Q01DX001 (sc), vehicle: carboxymethylcellulose (CMC) 103 % of control | endpoint: mean survival time, dose: 320.0 mg/kg/injection, schedule: Q01DX Z (oral), vehicle: carboxymethylcellulose (CMC) 112 % of control | endpoint: mean survival time, dose: 400.0 mg/kg/injection, schedule: Q01DX001 (oral), vehicle: carboxymethylcellulose (CMC) 106 % of control | endpoint: mean survival time, dose: 400.0 mg/kg/injection, schedule: Q01DX001 (sc), vehicle: carboxymethylcellulose (CMC) 102 % of control | endpoint: mean survival time, dose: 400.0 mg/kg/injection, schedule: Q04DX005 (ip), vehicle: carboxymethylcellulose (CMC) 97 % of control | endpoint: mean survival time, dose: 400.0 mg/kg/injection, schedule: Q07DX Z (ip), vehicle: saline 102 % of control | endpoint: mean survival time, dose: 400.0 mg/kg/injection, schedule: Q08DX002 (ip), vehicle: saline 97 % of control | endpoint: mean survival time, dose: 600.0 mg/kg/injection, schedule: Q01DX001 (sc), vehicle: carboxymethylcellulose (CMC) 98 % of control | endpoint: mean survival time, dose: 640.0 mg/kg/injection, schedule: Q01DX Z (oral), vehicle: carboxymethylcellulose (CMC) 112 % of control | endpoint: mean survival time, dose: 800.0 mg/kg/injection, schedule: Q01DX001 (oral), vehicle: carboxymethylcellulose (CMC) 105 % of control | endpoint: mean survival time, dose: 800.0 mg/kg/injection, schedule: Q08DX002 (ip), vehicle: carboxymethylcellulose (CMC) 109 % of control and 111 % of control | endpoint: mean survival time, dose: 800.0 mg/kg/injection, schedule: Q08DX003 (ip), vehicle: carboxymethylcellulose (CMC) 107 % of control | endpoint: mean survival time, dose: 900.0 mg/kg/injection, schedule: Q01DX001 (sc), vehicle: carboxymethylcellulose (CMC) 112 % of control | endpoint: mean survival time, dose: 1200.0 mg/kg/injection, schedule: Q01DX001 (oral), vehicle: carboxymethylcellulose (CMC) 97 % of control | endpoint: mean survival time, dose: 1280.0 mg/kg/injection, schedule: Q01DX Z (oral), vehicle: carboxymethylcellulose (CMC) 101 % of control | endpoint: mean survival time, dose: 1340.0 mg/kg/injection, schedule: Q01DX001 (oral), vehicle: carboxymethylcellulose (CMC) 107 % of control | endpoint: mean survival time, dose: 1600.0 mg/kg/injection, schedule: Q01DX001 (oral), vehicle: carboxymethylcellulose (CMC) 100 % of control | endpoint: mean survival time, dose: 2000.0 mg/kg/injection, schedule: Q01DX001 (oral), vehicle: carboxymethylcellulose (CMC) 112 % of control | endpoint: mean survival time, dose: 3000.0 mg/kg/injection, schedule: Q01DX001 (oral), vehicle: carboxymethylcellulose (CMC) 101 % of control | endpoint: median survival time, dose: 50.0 mg/kg/injection, schedule: Q04DX003 (ip), vehicle: steriod suspending solution 111 % of control | endpoint: median survival time, dose: 100.0 mg/kg/injection, schedule: Q01DX009 (ip), vehicle: steriod suspending solution 94 % of control | endpoint: median survival time, dose: 100.0 mg/kg/injection, schedule: Q04DX003 (ip), vehicle: steriod suspending solution 111 % of control | endpoint: median survival time, dose: 125.0 mg/kg/injection, schedule: Q01DX001 (sc), vehicle: steriod suspending solution 100 % of control | endpoint: median survival time, dose: 250.0 mg/kg/injection, schedule: Q01DX001 (sc), vehicle: steriod suspending solution 111 % of control | endpoint: median survival time, dose: 400.0 mg/kg/injection, schedule: Q04DX003 (sc), vehicle: steriod suspending solution 111 % of control | endpoint: median survival time, dose: 500.0 mg/kg/injection, schedule: Q01DX001 (sc), vehicle: steriod suspending solution 100 % of control | endpoint: median survival time, dose: 800.0 mg/kg/injection, schedule: Q04DX003 (sc), vehicle: steriod suspending solution 111 % of control | endpoint: median survival time, dose: 1000.0 mg/kg/injection, schedule: Q01DX001 (sc), vehicle: steriod suspending solution 105 % of control
